How the values were obtained:
Assay type in all cases: toxicity, cell-based
Fibroblast = test: Incucyte cell viability with human fibroblast; settings: 10 µM, compound concentration 10 uM
HEK-293T = test: Incucyte cell viability with HEK293T; settings: human, 10 µM, compound concentration 10 uM
U2OS = test: Incucyte cell viability with U2OS; settings: human, 10 µM, compound concentration 10 uM
Note: unitless GR value; below 1 slowed growth and below 0 cell loss.

Row | SMILES | Growth Rate (Fibroblast; 6 h, replicate number 1) | Growth Rate (Fibroblast; 6 h, replicate number 2) | Growth Rate (Fibroblast; 12 h, replicate number 1) | Growth Rate (Fibroblast; 12 h, replicate number 2) | Growth Rate (Fibroblast; 18 h, replicate number 2) | Growth Rate (Fibroblast; 24 h, replicate number 2) | Growth Rate (HEK-293T; 0 h, replicate number 1) | Growth Rate (HEK-293T; 6 h, replicate number 1) | Growth Rate (HEK-293T; 24 h, replicate number 1) | Growth Rate (U2OS; 6 h, replicate number 2) | Growth Rate (U2OS; 12 h, replicate number 1) | Growth Rate (U2OS; 12 h, replicate number 2) | Growth Rate (U2OS; 18 h, replicate number 1) | Growth Rate (U2OS; 18 h, replicate number 2) | Growth Rate (U2OS; 24 h, replicate number 2) | Growth Rate (Fibroblast; 18 h, replicate number 1) | Growth Rate (HEK-293T; 0 h, replicate number 2) | Growth Rate (U2OS; 0 h, replicate number 2) | Growth Rate (U2OS; 6 h, replicate number 1) | Growth Rate (Fibroblast; 0 h, replicate number 2) | further results
1 | COc1ccc(Cl)cc1[C@]1(F)C(=O)Nc2cc(C(F)(F)F)ccc21 [FLINDOKALNER] | -0.6 | -1 | -1 | 0.2 | 0.41 | 0.58 | 0.73 | 0.73 | 0.44 | 0.48 | 0.57 | 0.76 | 0.79 | 0.88 | 0.95 | – | – | – | – | – | Growth Rate (HEK-293T; 6 h, replicate number 2): 0.03; Growth Rate (HEK-293T; 12 h, replicate number 1): 0.58; Growth Rate (HEK-293T; 12 h, replicate number 2): 0.38; Growth Rate (HEK-293T; 18 h, replicate number 1): 0.42; Growth Rate (HEK-293T; 18 h, replicate number 2): 0.4; Growth Rate (HEK-293T; 24 h, replicate number 2): 0.47; Growth Rate (U2OS; 24 h, replicate number 1): 0.83
2 | CC[C@H](C(=O)Nc1ccccc1N1CCCC1)c1ccccc1 | – | -0.59 | – | 0.33 | 0.67 | 0.9 | – | 0.92 | – | – | – | – | – | 0.84 | 0.84 | -0.04 | – | – | – | – | Growth Rate (Fibroblast; 24 h, replicate number 1): -0.08; Growth Rate (HEK-293T; 6 h, replicate number 2): 0.91
3 | CC(C)(c1ccc(OCc2cccc(COc3ccc(C(=N)N)cc3)c2)cc1)c1ccc(O[C@@H]2O[C@H](C(=O)O)[C@@H](O)[C@H](O)[C@H]2O)cc1.O=C(O)C(F)(F)F | 0.34 | – | – | – | – | 0.92 | 0.51 | – | 1 | 0.56 | 0.97 | 0.68 | -0.41 | 0.89 | – | – | -0.08 | -0.17 | 0.61 | – | Growth Rate (Fibroblast; 0 h, replicate number 1): -1; Growth Rate (Fibroblast; 24 h, replicate number 1): 0.88; Growth Rate (HEK-293T; 18 h, replicate number 1): 0.87; Growth Rate (U2OS; 0 h, replicate number 1): 0.36
4 | O=C(O)CNC(=O)c1c(O)c2ccccc2n(Cc2ccccc2)c1=O | – | 0.61 | 0.75 | 0.68 | 0.94 | – | -0.08 | – | – | 0.74 | 0.92 | 0.94 | 0.86 | 0.9 | 0.97 | – | -0.1 | 0.34 | – | 0.56 | Growth Rate (HEK-293T; 12 h, replicate number 2): 0.91; Growth Rate (HEK-293T; 18 h, replicate number 2): 0.99; Growth Rate (HEK-293T; 24 h, replicate number 2): 0.93; Growth Rate (U2OS; 0 h, replicate number 1): 0.29
5 | O=C1NCCc2c(OCCCCN3CCCCC3)cccc21 | 0.19 | – | -0.5 | 0.64 | 0.79 | 0.76 | 0.6 | 0.81 | – | 0.34 | 0.56 | 0.86 | 0.79 | 0.88 | 0.83 | – | 0.67 | -0.98 | 0.02 | -0.96 | Growth Rate (Fibroblast; 0 h, replicate number 1): 0.29; Growth Rate (U2OS; 24 h, replicate number 1): 0.79
6 | CCc1nc(-c2cccc(C)c2)c(-c2ccnc(NC(=O)c3ccccc3)c2)s1 [TAK-715] | – | 0.83 | – | – | – | – | – | 0.48 | 0.92 | – | – | 0.79 | -0.35 | 0.87 | 0.92 | – | – | 0.2 | 0.63 | – | Growth Rate (Fibroblast; 0 h, replicate number 1): -0.56; Growth Rate (HEK-293T; 6 h, replicate number 2): 0.96; Growth Rate (HEK-293T; 24 h, replicate number 2): 0.81; Growth Rate (U2OS; 0 h, replicate number 1): -1
7 | COC[C@H](O)Cn1c(=O)cnn(-c2ccc(Cl)c(C(=O)NCC3(O)CCCCCC3)c2)c1=O [CE-224535] | – | – | -1 | – | – | – | – | 0.55 | – | – | – | – | – | – | – | -0.48 | 0.38 | – | – | -1 | Growth Rate (Fibroblast; 0 h, replicate number 1): -0.26; Growth Rate (U2OS; 0 h, replicate number 1): -0.6
8 | Cc1nc2ccccc2c(-c2ccc3c4c(ccnc24)CCO3)c1[C@H](OC(C)(C)C)C(=O)O [BI-224436] | – | – | – | 0.76 | – | – | 0.67 | – | – | 0.42 | 0.77 | 0.72 | – | 0.85 | 0.75 | – | 0.86 | -0.37 | 0.57 | – | –
9 | Cc1cc([N+](=O)[O-])c(NS(=O)(=O)c2cccc(C(=O)O)c2)cc1-c1cccnc1 [ALOFANIB] | 0.27 | 0.26 | 0.56 | 0.74 | 0.99 | 0.92 | -0.38 | – | 0.75 | 0.28 | 0.39 | 0.55 | 0.93 | 0.64 | 0.6 | 0.5 | – | 0.06 | 0.68 | 0.25 | Growth Rate (Fibroblast; 24 h, replicate number 1): 0.8; Growth Rate (HEK-293T; 6 h, replicate number 2): 0.57; Growth Rate (HEK-293T; 12 h, replicate number 1): 0.91; Growth Rate (HEK-293T; 12 h, replicate number 2): 0.68; Growth Rate (HEK-293T; 18 h, replicate number 1): 0.65; Growth Rate (HEK-293T; 18 h, replicate number 2): 0.78; Growth Rate (HEK-293T; 24 h, replicate number 2): 0.79; Growth Rate (U2OS; 0 h, replicate number 1): -0.35
10 | COc1ccc2c(O[C@@H]3C[C@H]4C(=O)N[C@]5(C(=O)NS(=O)(=O)C6(C)CC6)CC5/C=C\CCCCC[C@H](NC(=O)c5ccn(C)n5)C(=O)N4C3)cc(OC(C)C)nc2c1C (some centres undefined) | – | -0.88 | – | – | 0.84 | 0.88 | 1 | 0.89 | 0.9 | 0.93 | – | 0.63 | 0.99 | 0.79 | 0.78 | 0.9 | 0.49 | -0.46 | – | 0.85 | Growth Rate (Fibroblast; 24 h, replicate number 1): 0.9; Growth Rate (HEK-293T; 12 h, replicate number 1): 0.8; Growth Rate (HEK-293T; 18 h, replicate number 1): 0.9
11 | CCn1c(CNC(=O)c2ncc(C)nc2N)[n+](CC)c2ccc(C(=O)N(C)CCN(C)C)cc21.Cl.Cl.[Cl-] | 0 | – | 0.87 | – | – | – | 0.03 | – | 1 | 0.99 | 0.62 | 0.9 | – | – | – | 0.98 | – | 0.31 | 0.58 | -0.3 | Growth Rate (Fibroblast; 0 h, replicate number 1): -1; Growth Rate (Fibroblast; 24 h, replicate number 1): 0.9; Growth Rate (HEK-293T; 12 h, replicate number 1): 0.97; Growth Rate (U2OS; 24 h, replicate number 1): 0.97
